Experimental data published in US9212196B2, “Hypophosphorous acid derivatives having antihyperalgic activity and biological applications thereof” (UNIVERSITE PARIS DESCARTES, priority 2011, dated 2015).
Counter-ions that a name gives are not always drawn.

Key:
Format in all cases: cell-based
[1] = target: mGlu4 (Homo sapiens (Human), UniProt Q14833); test: Agonist activity on mGlu4 in transfected HEK293 cells, intracellular calcium release (Fluo4-AM); settings: transfected cells, calcium release; read-out: mGlu4 EC50 μM (n)
Text: (§1) The EC50's are compared to those of L-AP4 (L-2-amino-4-phosphonobutyric acid) used as a reference.
(§2) Metabotropic glutamate receptors were transiently transfected in HEK293 cells by electroporation as described elsewhere (Brabet I. et al., 1998) and plated in 96-well microplates. The high affinity glutamate transporter EAAC1 was co-transfected with the receptor in order to avoid any influence of glutamate released by the cells in the assay medium. In the experiments carried out by the inventors, Group-III mGluRs were co-transfected with a chimeric G-protein which couples the activation of the receptor to the phospholipase-C (PLC) pathway. Thus receptor activation induces production of inositol phosphate (IP) which in turn induces intracellular Ca^2+ release. Receptor activity was then determined by measurement of the IP production or Ca release as already described (Goudet C. et al., PNAS 2004). For intracellular calcium measurements, cells expressing mGluRs were loaded with Ca2+-sensitive fluorescent dye Fluo-4 AM (Invitrogen, Cergy-Pontoise, France) dissolved in Hanks' balanced salt solution (HBSS, Invitrogen, Cergy-Pontoise, France) containing 2.5 mM Probenicid (Sigma-Aldrich Chemie, Saint-Quentin Fallavier, France) for 1 h at 37° C., then washed and incubated with HBSS containing probenecid. A drug plate was prepared with the various concentrations of agonist to be tested and drug solution was added in each well after 20 s of recording. Fluorescence signals (excitation 485 nm, emission 525 nm) were measured by using the fluorescence microplate reader Flexstation III (Molecular Devices, Saint-Grégoire, France) at sampling intervals of 1.5 s for 60 s. All points are realized in triplicate.
(§3) The dose-response curves were fitted using the GraphPad Prism program and the following equation: y=[(ymax−ymin)/(1+(x/EC50)n)]+ymin where EC50 is the concentration of the compound necessary to obtain the half maximal effect and n is the Hill coefficient.

[2] = target: mGlu8 (Homo sapiens (Human), UniProt O00222); test: Agonist activity on mGlu8 in transfected HEK293 cells, intracellular calcium release (Fluo4-AM); settings: for EC50: transfected cells, calcium release, read-out: mGlu8 EC50 μM (n); for mGlu8/4 EC50 ratio: ratio of mGlu8 EC50 to mGlu4 EC50
Text: as §1, §2, §3

[3] = target: mGlu7 (Homo sapiens (Human), UniProt Q14831); test: Agonist activity on mGlu7 in transfected HEK293 cells, intracellular calcium release (Fluo4-AM); settings: transfected cells, calcium release; read-out: mGlu7 EC50 μM (n)
Text: as §1, §2, §3

[4] = tested on: mGlu7; test: as above; settings: ratio of mGlu7 EC50 to mGlu4 EC50
Text: as §1, §2, §3

Sequence of mGlu8 (O00222 34-908): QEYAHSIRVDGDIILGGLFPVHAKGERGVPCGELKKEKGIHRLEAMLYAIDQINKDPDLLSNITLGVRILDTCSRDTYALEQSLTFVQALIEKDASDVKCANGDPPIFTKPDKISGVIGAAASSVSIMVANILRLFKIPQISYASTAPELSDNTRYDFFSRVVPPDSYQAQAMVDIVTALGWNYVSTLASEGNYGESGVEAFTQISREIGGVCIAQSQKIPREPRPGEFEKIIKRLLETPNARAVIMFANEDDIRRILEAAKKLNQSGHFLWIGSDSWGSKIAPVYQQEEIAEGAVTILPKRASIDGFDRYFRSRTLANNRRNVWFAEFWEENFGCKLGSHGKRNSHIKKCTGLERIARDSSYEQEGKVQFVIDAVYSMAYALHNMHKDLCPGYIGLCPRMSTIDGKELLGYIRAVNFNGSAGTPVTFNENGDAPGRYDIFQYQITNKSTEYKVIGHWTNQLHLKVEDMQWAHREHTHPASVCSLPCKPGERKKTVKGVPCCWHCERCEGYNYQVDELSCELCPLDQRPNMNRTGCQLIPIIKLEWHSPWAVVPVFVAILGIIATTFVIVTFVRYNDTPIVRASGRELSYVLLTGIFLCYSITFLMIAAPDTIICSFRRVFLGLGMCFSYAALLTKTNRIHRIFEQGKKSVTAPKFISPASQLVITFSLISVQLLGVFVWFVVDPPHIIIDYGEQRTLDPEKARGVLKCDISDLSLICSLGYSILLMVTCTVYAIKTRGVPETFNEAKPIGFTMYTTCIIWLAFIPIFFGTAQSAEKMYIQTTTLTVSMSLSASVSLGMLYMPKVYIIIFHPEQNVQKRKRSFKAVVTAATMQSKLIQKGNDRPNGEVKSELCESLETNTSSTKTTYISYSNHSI
Sequence of mGlu4 (Q14833 33-912): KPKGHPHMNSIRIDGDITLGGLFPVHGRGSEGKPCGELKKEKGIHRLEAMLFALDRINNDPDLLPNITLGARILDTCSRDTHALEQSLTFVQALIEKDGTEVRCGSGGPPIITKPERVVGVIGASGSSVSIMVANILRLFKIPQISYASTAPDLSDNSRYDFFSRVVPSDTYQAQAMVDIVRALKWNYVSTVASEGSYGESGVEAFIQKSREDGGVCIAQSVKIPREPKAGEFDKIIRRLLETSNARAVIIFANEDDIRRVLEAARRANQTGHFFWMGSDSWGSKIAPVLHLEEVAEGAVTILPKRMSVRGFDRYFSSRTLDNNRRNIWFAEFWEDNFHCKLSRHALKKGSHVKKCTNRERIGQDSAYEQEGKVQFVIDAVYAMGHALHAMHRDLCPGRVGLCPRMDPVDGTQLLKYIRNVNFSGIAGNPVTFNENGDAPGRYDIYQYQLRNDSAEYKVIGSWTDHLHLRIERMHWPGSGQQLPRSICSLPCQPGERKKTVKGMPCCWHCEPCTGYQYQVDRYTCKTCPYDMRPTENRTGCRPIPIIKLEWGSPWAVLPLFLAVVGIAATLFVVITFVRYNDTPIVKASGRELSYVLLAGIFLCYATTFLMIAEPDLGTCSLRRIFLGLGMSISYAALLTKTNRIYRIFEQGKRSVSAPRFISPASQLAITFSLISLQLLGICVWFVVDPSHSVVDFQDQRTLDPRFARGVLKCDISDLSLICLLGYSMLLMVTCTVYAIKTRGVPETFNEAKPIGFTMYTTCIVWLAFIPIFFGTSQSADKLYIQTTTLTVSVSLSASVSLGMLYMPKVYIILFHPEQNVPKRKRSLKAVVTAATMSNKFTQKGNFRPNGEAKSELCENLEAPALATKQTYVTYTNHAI
Sequence of mGlu7 (Homo sapiens (Human), UniProt Q14831) (Q14831 35-915): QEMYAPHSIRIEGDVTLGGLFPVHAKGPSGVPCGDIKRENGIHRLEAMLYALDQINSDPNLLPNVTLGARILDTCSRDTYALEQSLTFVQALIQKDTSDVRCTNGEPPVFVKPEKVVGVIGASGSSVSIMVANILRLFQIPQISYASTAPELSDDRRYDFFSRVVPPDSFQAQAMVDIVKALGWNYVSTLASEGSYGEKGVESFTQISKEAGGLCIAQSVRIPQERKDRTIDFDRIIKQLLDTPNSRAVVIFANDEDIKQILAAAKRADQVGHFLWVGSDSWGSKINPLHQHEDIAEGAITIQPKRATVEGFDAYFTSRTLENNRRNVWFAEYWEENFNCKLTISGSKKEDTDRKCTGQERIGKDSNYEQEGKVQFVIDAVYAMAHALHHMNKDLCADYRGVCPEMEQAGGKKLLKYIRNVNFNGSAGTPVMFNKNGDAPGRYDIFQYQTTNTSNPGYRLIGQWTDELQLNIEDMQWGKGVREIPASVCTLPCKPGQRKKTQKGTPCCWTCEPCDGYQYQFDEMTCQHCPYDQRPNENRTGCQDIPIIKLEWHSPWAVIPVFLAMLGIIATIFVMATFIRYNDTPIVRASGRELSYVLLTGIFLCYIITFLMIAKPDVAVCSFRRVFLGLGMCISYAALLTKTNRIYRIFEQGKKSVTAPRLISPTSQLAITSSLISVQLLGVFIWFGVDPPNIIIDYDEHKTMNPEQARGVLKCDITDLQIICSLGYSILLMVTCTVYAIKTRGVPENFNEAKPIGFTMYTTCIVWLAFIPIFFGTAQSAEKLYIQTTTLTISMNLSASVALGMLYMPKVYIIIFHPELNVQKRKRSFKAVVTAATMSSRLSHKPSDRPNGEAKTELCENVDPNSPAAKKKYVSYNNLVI

Structure (SMILES)	EC50 [1] [µM]	EC50 [2] [µM]	mGlu8/4 EC50 ratio [2]	EC50 [3] [µM]	mGlu7/4 EC50 ratio [4]	mGlu8/4 EC50 ratio ([2]; Hydrochloride)
N[C@@H](CCP(=O)(O)C(O)c1cccc(OCC(=O)O)c1)C(=O)O (mixture of isomers) [Derivative 15, [((3S)-3-Amino-3-carboxy)propyl][(3-(carboxymethoxy)phenyl)hydroxymethyl]phosphinic Acid]	7.6 ± 2	71 ± 25				
N[C@@H](CCP(=O)(O)C(O)c1cccc(OCC(=O)O)c1)C(=O)O (single isomer, unassigned) [Derivative 16, Hydrochloride]	4.9 ± 1	36 ± 18				
N[C@@H](CCP(=O)(O)C(O)c1cccc(OCC(=O)O)c1)C(=O)O (single isomer, unassigned) [Derivative 17, Hydrochloride]	13 ± 2.9	29.3 ± 7.2				
CCOc1cc(C(O)P(=O)(O)CC[C@H](N)C(=O)O)ccc1OCC(=O)O (stereo in doubt) [Derivative 19, 2-amino-4-(((4-(carboxymethoxy)-3-ethoxyphenyl)(hydroxy)methyl)(hydroxy)phosphoryl)butanoic acid]	1.67 ± 0.33	25 ± 6	15	60.2 ± 10.6	36	
N[C@@H](CCP(=O)(O)C(O)c1ccc(OCC(=O)O)c(OC(F)(F)F)c1)C(=O)O (stereo in doubt) [Derivative 20, 2-amino-4-(((4-(carboxymethoxy)-3-(trifluoromethoxy)phenyl)(hydroxy)methyl)(hydroxy)phosphoryl)butanoic acid]	0.06 ± 0.02	55.6 ± 12	927	1.97 ± 0.34	33	
N[C@@H](CCP(=O)(O)C(O)c1ccc(OCC(=O)O)c(C(F)(F)F)c1)C(=O)O (stereo in doubt) [Derivative 21, 2-amino-4-(((4-(carboxymethoxy)-3-(trifluoromethyl)phenyl)(hydroxy)methyl)(hydroxy)phosphoryl)butanoic acid]	0.9 ± 0.06	6.86 ± 1.83	8	35.5 ± 4	39	
N[C@@H](CCP(=O)(O)C(O)c1ccc(OCC(=O)O)c(O)c1)C(=O)O (stereo in doubt) [Derivative 22, 2-amino-4-(((4-(carboxymethoxy)-3-hydroxyphenyl)(hydroxy)methyl)(hydroxy)phosphoryl)butanoic acid]	1.1 ± 0.4	34 ± 19	31	15 ± 3.6	14	
N[C@@H](CCP(=O)(O)C(O)c1ccc(OCC(=O)O)c(C(=O)O)c1)C(=O)O (stereo in doubt) [Derivative 23, 5-(((3-amino-3-carboxypropyl)(hydroxy)phosphoryl)(hydroxy)methyl)-2-(carboxymethoxy)benzoic acid]	4 ± 0.6	7.4 ± 1.2	1.9	65 ± 13	16	
N[C@@H](CCP(=O)(O)C(O)c1ccc(OCC(=O)O)c([N+](=O)[O-])c1)C(=O)O (stereo in doubt) [Derivative 24, 2-amino-4-(((4-(carboxymethoxy)-3-nitrophenyl)(hydroxy)methyl)(hydroxy)phosphoryl)butanoic acid]	0.26 ± 0.07	1.59 ± 0.82	6.1	11.2 ± 3.9	43	
N[C@@H](CCP(=O)(O)C(O)c1ccc(SCC(=O)O)c([N+](=O)[O-])c1)C(=O)O (stereo in doubt) [Derivative 25, 2-amino-4-(((4-(carboxymethylthio)-3-nitrophenyl)(hydroxy)methyl)(hydroxy)phosphoryl)butanoic acid]	1.1 ± 0.36	11.5	10.4	15.2 ± 3.9	1.4	
N[C@@H](CCP(=O)(O)C(O)c1ccc(SCC(=O)O)cc1)C(=O)O (stereo in doubt) [Derivative 26, 2-amino-4-(((4-(carboxymethylthio)phenyl)(hydroxy)methyl)(hydroxy)phosphoryl)butanoic acid]	0.21 ± 0.04	1.23 ± 0.48	5.9	13 ± 1.1	62	
CC(Oc1ccc(C(O)P(=O)(O)CC[C@H](N)C(=O)O)cc1)C(=O)O (stereo in doubt) [Derivative 29, 2-amino-4-(((4-(1-carboxyethoxy)phenyl)(hydroxy)methyl)(hydroxy)phosphoryl)butanoic acid]	0.95 ± 0.16	14.3 ± 5.6	15	103 ± 7	109	
COc1cc(CP(=O)(O)CC[C@H](N)C(=O)O)ccc1OCC(=O)O (stereo in doubt) [Derivative 31, 2-amino-4-((4-(carboxymethoxy)-3-methoxybenzyl)(hydroxy)phosphoryl)butanoic acid]	7.41 ± 1.55	> 300	>40			
N[C@@H](CCP(=O)(O)Cc1ccc(OCC(=O)O)c(OC(F)(F)F)c1)C(=O)O (stereo in doubt) [Derivative 32, 2-amino-4-((4-(carboxymethoxy)-3-(trifluoromethoxy)benzyl)(hydroxy)phosphoryl)butanoic acid]	1.22 ± 0.15	> 100	>82	16.2 ± 3.5	13	
N[C@@H](CCP(=O)(O)Cc1ccc(OCC(=O)O)c(C(F)(F)F)c1)C(=O)O (stereo in doubt) [Derivative 33, 2-amino-4-((4-(carboxymethoxy)-3-(trifluoromethyl)benzyl)(hydroxy)phosphoryl)butanoic acid]	62.5 ± 20.5	> 100	1.6	301 ± 73	5	
COc1cc(CP(=O)(O)CC[C@H](N)C(=O)O)cc(F)c1OCC(=O)O (stereo in doubt) [Derivative 34, 2-amino-4-((4-(carboxymethoxy)-3-fluoro-5-methoxybenzyl)(hydroxy)phosphoryl)butanoic acid]	3.09 ± 0.62	9.17 ± 2.37	3	232 ± 85	75	
COc1cc(CP(=O)(O)CC[C@H](N)C(=O)O)cc(Cl)c1OCC(=O)O (stereo in doubt) [Derivative 35, 2-amino-4-((4-(carboxymethoxy)-3-chloro-5-methoxybenzyl)(hydroxy)phosphoryl)butanoic acid]	6.2 ± 0.58	38.2 ± 7.1	6	> 300	>48	
COc1cc(C(O)P(=O)(O)CC[C@H](N)C(=O)O)cc(F)c1OCC(=O)O (some centres unmarked) [Derivative 6]	0.08 ± 0.02	10.3 ± 1.3	129	3.5 ± 1.3	44	
COc1cc(C(O)P(=O)(O)CC[C@H](N)C(=O)O)cc(Cl)c1OCC(=O)O (some centres unmarked) [Derivative 7]	0.13 ± 0.02	44 ± 7	341	11.4 ± 0.1	88	
COc1cc(C(O)P(=O)(O)CC[C@H](N)C(=O)O)cc(I)c1OCC(=O)O (some centres unmarked) [Derivative 8]	0.15 ± 0.03	28 ± 4	193	6.6 ± 1.5	44	
N[C@@H](CCP(=O)(O)C(O)c1cccc(OCC(=O)O)c1)C(=O)O (stereo partly drawn) [Derivative 15, [((3S)-3-Amino-3-carboxy)propyl][(3-(carboxymethoxy)phenyl)hydroxymethyl]phosphinic Acid]			9.4			
N[C@@H](CCP(=O)(O)C(O)c1cccc(OCC(=O)O)c1)C(=O)O (stereo partly drawn) [Derivative 16, [((3S)-3-Ammonium-3-carboxy)propyl][(3-(carboxymethoxy)phenyl)hydroxymethyl]phosphinic Acid Hydrochloride]						7.4
N[C@@H](CCP(=O)(O)C(O)c1cccc(OCC(=O)O)c1)C(=O)O (stereo partly drawn) [Derivative 17, [((3S)-3-Ammonium-3-carboxy)propyl][(3-(carboxymethoxy)phenyl)hydroxymethyl]phosphinic Acid Hydrochloride]						2.3
N[C@@H](CCP(=O)(O)C(O)c1ccc(OCC(=O)O)c(OCC(=O)O)c1)C(=O)O (stereo partly drawn) [Derivative 18, [((3S)-3-Amino-3-carboxy)propyl][(3,4-di(carboxymethoxy)phenyl)hydroxymethyl]phosphinic Acid]	2.5 ± 1.1	14.1 ± 7.3	6			
